{
  "source": "patent EP0333676A2",
  "about": "“Use of 1-(2-ethoxy-2-(3'-pyridyl)ethyl)-4-(2'methoxy-phenyl)piperazine, for the preparation of pharmaceutical compositions useful for the treatment of lower urinary tract disfunctions and benign prostatic hypertrophy” (MALESCI ISTITUTO FARMACOBIOLOGICO S.p.A., priority 1988, dated 1989)",
  "key": {"[1]": {"system": "isolated urethra of rat", "assay": "Inhibition of field stimulation-induced contractions of isolated rat proximal urethra", "details": "inhibition of urethral contractions by field stimulation (20 Hz, 0.5 msec, maximal voltage), atropine 1 uM in medium, range 1 pM-1 nM, printed interval (0.09-0.18), read-out: EC₅₀", "description": "(§1) In the \"in vitro\" studies, male albino rats, Wistar Nossan strain, weighing 300-350 g were used. Animals were sacrificed by cervical dislocation and the proximal urethra was quickly excised, cleaned of connective tissues and then suspended in an organ bath and tied to an isometric force transducer, under resting tension of 0.5 g. Experiments were performed at 37°C and the bathing medium (gassed with 95% O₂ and 5% CO₂) had the following composition (mM): NaCl 119, KCl 4.7, MgSO₄ 1.5, […], CaCl₂ 2.5, NaHCO₃ 25 and glucose 11. Experiments were carried out after 60 min equilibration period.\n(§2) In a first group of experiments a cumulative concentration response curve to alpha₁-adrenoceptor selective agonist, phenylephrine, was obtained in control conditions or in presence of the compound of invention (1 nM). The compound of invention (1 nM) produced a rightward parallel displacement of concentration response curve to phenylephrine with a pA₂ of 9.18±0.12. In another set of experiments urethral contractions were obtained by means of field stimulation (20 Hz, 0.5 msec, maximal voltage; trains of 5 sec every 4 min). These contractions (obtained in a medium additionated with atropine 1 uM) were TTX-sensitive and probably due to stimulation of adrenergic fibers. […]"}, "[2]": {"system": "rat chronically treated with testosterone", "assay": "Transvesical cystometrogram in rats chronically treated with testosterone (urethral outflow obstruction)", "assay_type": "in vivo", "details": "0.1-3 ug/Kg i.v.; rats treated for 2 weeks with testosterone propionate 3 mg/Kg s.c.; urethane anaesthesia", "description": "(§3) In the \"vivo\" studies two experimental models characterized by urethral outflow obstruction were used: a) rat chronically treated with testosterone and b) rat acutely treated with hexamethonium.\n(§4) Male albino rats, Wistar strain, weighting 300-350 g, were treated for 2 weeks with testosterone propionate at the dose of 3 mg/Kg s.c.. Afterwards animals were anaesthetized with urethane 40% s.c. (0.3 ml/hg) and then transvescical cystometrogram were perfused according to the method of Maggi et al. (J. Pharmacol. Meth. 15, 157; 1986). Testosterone-treated animals were characterized by the appearance of frequent, scarcely effective, micturition complexes and by a very high residual volume (about double than controls). […] It is important to underline that in urethane anaesthetized normotensive rats, i.v. administration of compound of invention exerts an hypotensive effect in the range 3-100 ug/kg."}, "[3]": {"system": "alpha₁-adrenoceptor", "assay": "Antagonism of the phenylephrine concentration-response curve in isolated rat proximal urethra", "details": "versus phenylephrine, compound at 1 nM, rightward parallel displacement of the curve", "description": "as §1, §2"}, "[4]": {"system": "urethane anaesthetized normotensive rats", "assay": "Hypotensive effect in urethane-anaesthetized normotensive rats", "assay_type": "in vivo, rat", "details": "i.v. administration", "description": "as §4"}, "[5]": {"system": "rat acutely treated with hexamethonium", "assay": "Transvesical cystometrogram in rats acutely treated with hexamethonium (urethral outflow obstruction)", "assay_type": "in vivo", "details": "pretreatment at doses lower than 3 ug/Kg i.v.", "description": "as §3\nUrethane-anaesthetized male albino rats, Wistar strain weighing 300-350 g, were used.\nAdministration of hexamethonium (40 mg/Kg i.v.) 5 minutes before start of transvescical cystometrogram produced in about 75% of animals an overflow incontinence coupled to high values of intravescical pressure."}},
  "data": [
    {"smiles": "CCOC(CN1CCN(c2ccccc2OC)CC1)c1cccnc1", "note": "(racemic) [compound of invention, 1-(2-ethoxy-2-(3′-pyridyl)ethyl)-4-(2′-methoxy-phenyl)piperazine]", "values": [
      {"measurement": "EC50", "setting": "[1]", "result": 0.13, "unit": "nM"},
      {"measurement": "voiding efficiency", "setting": "[2]", "result": "clear, objective and prompt beneficial action on the voiding efficiency"},
      {"measurement": "pA₂", "setting": "[3]", "result": "9.18±0.12"},
      {"measurement": "dose range exerting an hypotensive effect", "setting": "[4]", "result": "3 to 100", "unit": "µg/kg"},
      {"measurement": "intravescical pressure", "setting": "[5]; hexamethonium 40 mg/Kg i.v.", "result": "lower intravescical pressure values"},
      {"measurement": "overflow incontinence", "setting": "[5]; hexamethonium 40 mg/Kg i.v. (about 75% of animals incontinent without pretreatment)", "result": "never produced overflow incontinence"}
    ]}
  ]
}
